Values of other authors in patent US7740874B2, “Method of making a lanolin free absorption base” (Quintessa Corporation, priority 2002, dated 2010).

Settings: hydrophilic-lipophilic balance

For methyl glucose dioleate [emulsifier], the HLB is listed as 5.
